# Like-named read-outs stand apart in the source and are kept apart here.
# Experiments:
# Assay type in all cases: cell-based
# HT29 cells [1] = experiment: Combined use of compound 257 with PLK1 inhibitor on HT29 cell viability, 72 h (Biological Example 5); conditions: for IC50: Homo sapiens, HT-29, 72 h, HT29 cells
# Protocol: (§1) HT29 cells were seeded on a 384-well plate at 3000 cells/well. After overnight adherence culture, DMSO or compound 257 serially diluted in a 1:5 ratio from 5 μM and a PLK1 inhibitor with a specified concentration were added. The cell viability was assessed 72 h after dosing by measuring the intracellular ATP content. The inhibition percentages of viable cells by the compounds were calculated by comparing with the DMSO group, and the IC50 values were also calculated.
# HT29 cells [2] = experiment: Combined use of compound 257 or AMG650 with PLK1 inhibitor on HT29 cell viability, 168 h (Biological Example 7); conditions: for Maximum inhibition rate / Minimum inhibition rate / IC50: HT29 cells; for IC50: Homo sapiens, HT-29, 168 h
# Protocol: as §1, with “257 or AMG650” for “257”, “400 nM” for “5 μM”, “168” for “72”
# HCT116 cells [3] = experiment: Combined use of compound 257 or AMG650 with PLK1 inhibitor on HCT116 cell viability, 168 h (Biological Example 8)
# Protocol: as §1, with “HCT116 cells” for “HT29 cells”, “257 or AMG650” for “257”, “from 10” for “from 5”, “assessed 168” for “assessed 72”
# HT29 cells [4] = experiment: Combined use of compound 257, AMG650 or Compound A with PLK1 inhibitor on HT29 cell viability, 168 h (Biological Example 19); conditions: for IC50: Homo sapiens, HT-29, 168 h, HT29 cells, read-out: IC50
# Protocol: HT29 cells were seeded on a 384-well plate at 3000 cells/well.
# HCT116 cells [5] = experiment: Combined use of compound 257, AMG650 or Compound A with PLK1 inhibitor on HCT116 cell viability, 168 h (Biological Example 20)
# Protocol: as §1, with “HCT116” for “HT29”, “257, AMG650, or Compound A” for “257”, “400 nM” for “5 μM”, “168” for “72”
# SK-OV-3 cells = experiment: Combined use of compound 257 or AMG650 with PLK1 inhibitor on SK-OV-3 cell viability, 168 h (Biological Example 21); conditions: 168 h; for IC50: Homo sapiens, SK-OV-3, 168 h, SK-OV-3 cells, read-out: IC50
# Protocol: (§2) SK—OV-3 cells were seeded on a 384-well plate at 3000 cells/well. After overnight adherence culture, DMSO or compound 257 or AMG650 serially diluted in a 1:5 ratio from 400 nM and a PLK1 inhibitor with a specified concentration were added. The cell viability was assessed 168 h after dosing by measuring the intracellular ATP content. […] Furthermore, interactions between the drugs were also analyzed using the BLISS independence model, and the results are shown in FIG. 11 and FIG. 12.
# HT29 cells [6] = experiment: Combined use of compound 257 or AMG650 with PLK1 inhibitor (Volasertib) on HT29 cell viability, 168 h (Biological Example 22); conditions: 168 h; for IC50: Homo sapiens, HT-29, 168 h, HT29 cells, read-out: IC50
# Protocol: as §2, with “HT29” for “SK—OV-3”, “15” for “11”, “16.” for “12.”
smiles,measurement,setting,value
COc1ccc(NC(=O)c2ccc(NS(=O)(=O)CCO)cc2N2CCC3(CC2)CC3)nc1N1CCC(F)(F)CC1 [Compound 257],IC50,HT29 cells [1]; BI 2536 0 nM,13.5 nM
same,IC50,HT29 cells [1]; BI 2536 1.25 nM,9.9 nM
same,IC50,HT29 cells [1]; BI 2536 2.5 nM,6.2 nM
same,IC50,HT29 cells [1]; BI 2536 5 nM,2 nM
same,IC50,HT29 cells [1]; BI 2536 10 nM,0.6 nM
same,IC50,HT29 cells [1]; GSK461364 0 nM,13.5 nM
same,IC50,HT29 cells [1]; GSK461364 1.25 nM,14.3 nM
same,IC50,HT29 cells [1]; GSK461364 2.5 nM,8.8 nM
same,IC50,HT29 cells [1]; GSK461364 5 nM,3.3 nM
same,IC50,HT29 cells [1]; GSK461364 10 nM,0.5 nM
same,IC50,HT29 cells [1]; MLN0905 0 nM,13.1 nM
same,IC50,HT29 cells [1]; MLN0905 12.5 nM,4.7 nM
same,IC50,HT29 cells [1]; MLN0905 25 nM,0.5 nM
same,IC50,HT29 cells [1]; Onvansertib 0 nM,12.7 nM
same,IC50,HT29 cells [1]; Onvansertib 12.5 nM,5.2 nM
same,IC50,HT29 cells [1]; Onvansertib 25 nM,0.8 nM
same,IC50,HT29 cells [1]; Rigosertib 0 nM,14.5 nM
same,IC50,HT29 cells [1]; Rigosertib 12.5 nM,12.2 nM
same,IC50,HT29 cells [1]; Rigosertib 25 nM,15.2 nM
same,IC50,HT29 cells [1]; Rigosertib 50 nM,9.1 nM
same,IC50,HT29 cells [1]; Rigosertib 100 nM,0.4 nM
same,IC50,HT29 cells [1]; Ro3280 0 nM,13.6 nM
same,IC50,HT29 cells [1]; Ro3280 12.5 nM,2.9 nM
same,IC50,HT29 cells [1]; Ro3280 25 nM,0.4 nM
same,IC50,HT29 cells [1]; Volasertib 0 nM,13.1 nM
same,IC50,HT29 cells [1]; Volasertib 12.5 nM,1.1 nM
same,IC50,HT29 cells [1]; Volasertib 25 nM,0.7 nM
same,"inhibitory effect on HT-29 cells, combined use with the PLK1 inhibitor compared with monotherapy",HT29 cells [1]; in words,stronger inhibitory effect
same,Maximum inhibition rate,HT29 cells [2]; Volasertib 0 nM,85.3%
same,Minimum inhibition rate,HT29 cells [2]; Volasertib 0 nM,3.2%
same,Maximum inhibition rate,HT29 cells [2]; Volasertib 3.12 nM,94.6%
same,Minimum inhibition rate,HT29 cells [2]; Volasertib 3.12 nM,1.8%
same,Maximum inhibition rate,HT29 cells [2]; Volasertib 6.25 nM,94.4%
same,Minimum inhibition rate,HT29 cells [2]; Volasertib 6.25 nM,0.5%
same,IC50,HT29 cells [2]; Volasertib 0 nM,14 nM
same,IC50,HT29 cells [2]; Volasertib 3.12 nM,7 nM
same,IC50,HT29 cells [2]; Volasertib 6.25 nM,2.8 nM
same,"inhibitory effect on HT-29 cells, combined use with the PLK1 inhibitor compared with monotherapy","HT29 cells [2]; Volasertib, in words",stronger inhibitory effect
same,IC50,"HCT116 cells [3]; HCT116 cells, Volasertib 3.12 nM",> 10000 nM
same,IC50,"HCT116 cells [3]; HCT116 cells, Volasertib 6.25 nM",> 10000 nM
same,IC50,"HCT116 cells [3]; Homo sapiens, HCT-116, HCT116 cells, Volasertib 0 nM",> 10000 nM
same,"synergistic effect on HCT116 cell viability, combined use with the PLK1 inhibitor","HCT116 cells [3]; Volasertib, in words",no significant synergistic effect
same,"inhibitory effect on HT-29 cells, combined use with the PLK1 inhibitor compared with monotherapy","HT29 cells [4]; CYC140 or TAK-960, in words",stronger inhibitory effect
same,IC50,HT29 cells [4]; CYC140 (Plogosertib) 0.0001 nM,10.6 nM
same,IC50,HT29 cells [4]; CYC140 (Plogosertib) 1.6 nM,8.3 nM
same,IC50,HT29 cells [4]; CYC140 (Plogosertib) 8 nM,6.9 nM
same,IC50,HT29 cells [4]; CYC140 (Plogosertib) 40 nM,0.9 nM
same,IC50,HT29 cells [4]; TAK-960 0.0001 nM,10.1 nM
same,IC50,HT29 cells [4]; TAK-960 1.6 nM,8.5 nM
same,IC50,HT29 cells [4]; TAK-960 8 nM,1.7 nM
same,IC50,HT29 cells [4]; TAK-960 40 nM,1.7 nM
same,"synergistic effect on HCT116 cell viability, combined use with the PLK1 inhibitor","HCT116 cells [5]; CYC140 or TAK-960, in words",no significant synergistic effect
same,IC50,"HCT116 cells [5]; HCT116 cells, CYC140 (Plogosertib) 1.6 nM",> 400 nM
same,IC50,"HCT116 cells [5]; HCT116 cells, CYC140 (Plogosertib) 8 nM",> 400 nM
same,IC50,"HCT116 cells [5]; HCT116 cells, CYC140 (Plogosertib) 40 nM",> 400 nM
same,IC50,"HCT116 cells [5]; HCT116 cells, TAK-960 0 nM",> 400 nM
same,IC50,"HCT116 cells [5]; HCT116 cells, TAK-960 1.6 nM",> 400 nM
same,IC50,"HCT116 cells [5]; HCT116 cells, TAK-960 8 nM",> 400 nM
same,IC50,"HCT116 cells [5]; HCT116 cells, TAK-960 40 nM",> 400 nM
same,IC50,"HCT116 cells [5]; Homo sapiens, HCT-116, HCT116 cells, CYC140 (Plogosertib) 0 nM",> 400 nM
same,"anti-proliferative activity against HCT116 cells, monotherapy",HCT116 cells [5]; in words,did not exhibit anti-proliferative activity
same,"inhibitory effect on SK-OV-3 cells, combined use with the PLK1 inhibitor compared with monotherapy","SK-OV-3 cells; Volasertib, in words",stronger inhibitory effect
same,IC50,SK-OV-3 cells; Volasertib 0.0001 nM,15.4 nM
same,IC50,SK-OV-3 cells; Volasertib 3.13 nM,12.8 nM
same,IC50,SK-OV-3 cells; Volasertib 6.25 nM,12.2 nM
same,IC50,SK-OV-3 cells; Volasertib 12.5 nM,8.7 nM
same,IC50,SK-OV-3 cells; Volasertib 25 nM,5.9 nM
same,IC50,SK-OV-3 cells; Volasertib 50 nM,2 nM
same,"inhibitory effect on HT-29 cells, combined use with the PLK1 inhibitor compared with monotherapy","HT29 cells [6]; Volasertib, in words",stronger inhibitory effect
same,IC50,HT29 cells [6]; Volasertib 0.0001 nM,10.9 nM
same,IC50,HT29 cells [6]; Volasertib 3.13 nM,7.9 nM
same,IC50,HT29 cells [6]; Volasertib 6.25 nM,5.9 nM
same,IC50,HT29 cells [6]; Volasertib 12.5 nM,2.5 nM
same,IC50,HT29 cells [6]; Volasertib 25 nM,0.4 nM

# — US20260191849A1, “PHARMACEUTICAL COMPOSITION FOR TREATMENT OF CANCER” (WIGEN BIOMEDICINE TECHNOLOGY (SHANGHAI) CO., LTD., priority 2022, published 2026)
